Several values for one entry are separate records, joined by “and”; a condition that tells them apart may be missing. Equal values may be shown once. Read-outs that look alike come from different tables or passages of the source.
Test system: human LDL receptor promoter
Test: in vitro Luciferase Activity Test (LDL receptor promoter-luciferase reporter in recombinant CHO cells)
Assay type: cell-based
Parameters: MED: unit not given here
Settings: for Emax: Homo sapiens, CHO, read-out: MA%; for Emax / MA%: maximum activity (%) over control; for MED: minimum effective dose (molar concentration, unit not given), 24 hr, assay medium with 0.5 µg/ml 25-hydroxycholesterol; for RED: relative effective dose compared to compound of Example 4, below one = more active
Procedure: A 1546 base pair sequence of the human LDL receptor promoter was amplified using the polymerase chain reaction. A reaction mixture containing 20 pMoles each of the synthetic oligonucleotides 5'-[…]-3' (Seq. I.D. No: 1) and 5'-AAG-[…]-3', (Seq. I.D. No:2) 1 µg human genomic DNA purified from the adenocarcinoma cell line P3UCLA, 200 µM each of dATP, dGTP, dCTP, and TTP, 2.5 units of Taq DNA polymerase, 10mM Tris-HCI pH 8.3, 50 mM KCI, […], 0.1% gelatin in a final volume of 100 µl was subjected to 30 cycles of 15 sec at 96°C, 30 sec at 55°C, and 1 min at 72°C. The material was subject to gel electrophoresis on a 1% agarose gel and the 1546 base pair band was isolated and restriction enzyme digested with Hind III and Nde I. This fragment was ligated into the plasmid pSP72 (ProMega Biotech), which had previously been restriction enzyme nuclease digested with Hind III and Nde I. The resulting vector, pNLDLRP, was restriction endonulease digested with Ndel and Hind III and the material was again run on a 1% agarose gel to reisolate the 1546 bp LDL receptor sequence.
Plasmid vector PSv2 was constructed by digesting plasmid pSv2-globin with Hind III and Bgl II then ligating an Nrul-Xhol linker into the vector. Plasmid pSv2 globin is disclosed in U.S. Patent No. 4,775,624, the entire teaching of which is herein incorporated by reference. The linker contained the following sequences: [formula] (Seq. I.D. No: 3), and [formula] ' (Seq. I.D. No:4).
The resulting vector was designated pSv2-H NXB because it contained a […], an Nrul site, an Xhol site and a Bgl site. The Hind III-Bgl II fragment of plasmid pAlc4(NRRL B-18783), which contains the firefly luciferase gene, was then ligated into the Hin III-Bgl site of plasmid pSv2-HNXB. A neomycin resistance-conforming gene was then ligated into the Bam HI site of the resultant plasmid to form plasmid pSv2.
A 1546 base pair fragment was isolated and cloned into a Ndel and Hind III (partial) restriction digested vector pSv2 containing the firefly luciferase reporter gene and a gene for neomycin resistance. The resulting vector, pLDL-Luc1 Neo-10, contains the human LDL receptor promoter driving expression of the firefly luciferase gene, a gene coding for neomycin resistance, ampicillin resistant marker and an origin of replication.
Plasmid pLDL-Luc 1 Neo-10 was used to stably transfect Chinese Hamster Ovary cells using a Lipofection Reagent kit and procedure from Gibco BRL Research Products Division Life Technologies Inc. Transformants were selected by picking individual colonies grown in Dulbecco's modified Eagle's medium supplimented with 10% fetal bovine serum and containing 500 µg per ml […]. […] Clone S27/B30 was used for subsequent screening.
In developing a cell based screen it is important to have a negative control. The viral SV40 promoter is ideal for this purpose in that it has a number of SP1 elements that enhance gene transcription. These elements are not under the control of end product repression; but they do have a high degree of sequence homology with the 16 base pair long sterol response element found in the LDL receptor promoter. The SV40 promoter should therefore be a sensitive mechanism to screen out agents that induce nonspecific transcription.
Chinese Hamster Ovary cells were stably cotransfected with a vector pSV2AL-A 5' containing the SV40 promoter driving expression of the firefly luciferase gene and a second vector pSV2 NeoBam containing a neomycin resistant marker. Transfections were carried out using the Lipofectin Reagent kit and procedure from Gibco BRL Research Products Division Life Technologies Inc. Transformants were selected by picking individual colonies grown in Dulbecco's modified Eagle's medium supplemented with 10% fetal bovine serum and containing 500 µg per ml of geneticin. Individual clones were selected, lysed and assayed for luciferase production. […]

[1] = NA is not active, 30% luciferase activity cutoff point (footnote 1)
[2] = tests using 30% luciferase activity cutoff point (footnote 1)
[3] = 30% luciferase activity cutoff point (footnote 1)
[4] = 15% luciferase activity cutoff point (footnote 2)
[5] = tests using 15% luciferase activity cutoff point (footnote 2)

Structure (SMILES)	Emax [1] [%]	MED [2]	RED [3]	Emax [4] [%]	MED [5]	RED [4]	MA% [1]	MA% [4]
C=CC[C@@H]1[C@H](O)CC[C@@]2(C)[C@H]1CC[C@@H]1[C@@H]2CC[C@]2(C)[C@@H]([C@H](C)CC[C@@H](CC)C(C)C)CC[C@@H]12 [Example 96, (3a, 4a, 5a)-4-(2-propenyl)-stigmastan-3-ol]	93	8.3	0.73	–	–	–	–	–
CC(C)CCC[C@@H](C)[C@H]1CC[C@H]2[C@@H]3CCC4[C@H](Cc5ccc(Cl)c(Cl)c5)[C@H](O)CC[C@]4(C)[C@H]3CC[C@]12C (some centres unmarked) [Example 27, 4a-(3,4-dichlorobenzyl)cholestan-3a-ol]	–	–	–	32	9.1	4.0	–	–
C[C@H](CCCN(C)C)[C@H]1CC[C@H]2[C@@H]3[C@H](O)C[C@@H]4C[C@H](O)CC[C@]4(C)[C@H]3CC[C@]12C [Example 52, 3a,7a-dihydroxy-25-azacoprostane]	–	–	–	–	–	–	121% and 85% and 136% and 86% and 84%	–
C=C(C)C[C@@H]1[C@H](O)CC[C@@]2(C)[C@H]1CC[C@@H]1[C@@H]2CC[C@]2(C)[C@@H]([C@H](C)CCCC(C)C)CC[C@@H]12 [Example 89, (3a,4a,5a)-4-(2-methyl-2-propenyl)cholestan-3-ol]	102	2.8	0.25	–	–	–	–	–
CC(C)CCC[C@@H](C)[C@H]1CC[C@H]2[C@@H]3CCC4=C(Cc5ccccc5)[C@H](O)CC[C@]4(C)[C@H]3CC[C@]12C [Example 38, 4-benzyl-4-cholesten-3a-ol]	–	–	–	–	84 and 42	7.37 and 3.7	–	33% and 58%
C[C@H](CCCN(C)C)[C@H]1CC[C@H]2[C@@H]3[C@H](O)C[C@@H]4C[C@H](O)CC[C@]4(C)[C@H]3CC[C@]12C [Example 54, 3a,7a-dihydroxy-25-azacoprostane]	–	12.3	–	–	–	–	102% and 92%	–
C/C=C/C[C@@H]1[C@H](NC(C)=O)CC[C@@]2(C)[C@H]1CC[C@@H]1[C@@H]2CC[C@]2(C)[C@@H]([C@H](C)CCCC(C)C)CC[C@@H]12 [Example 9, [4a(E),5a]-4-(2-butenyl)-3a acetamidocholestane]	60	2.0	0.88	–	–	–	–	–
C=CC[C@@H]1[C@H](O)CC[C@@]2(C)[C@H]1CC[C@@H]1[C@@H]2CC[C@]2(C)[C@@H]([C@H](C)CCCN(C)C)CC[C@@H]12 [Example 44, 4a-(2-propenyl)-cholan-24-N,N-dimethylamino-3a-ol]	–	–	–	62	–	–	77% and 56%	78%
C[C@H](CCCN(C)C)[C@H]1CC[C@H]2[C@@H]3[C@H](O)C[C@@H]4C[C@H](O)CC[C@]4(C)[C@H]3C[C@H](O)[C@]12C [Example 53, 3a,7a,12a-trihydroxy-25-azacoprostane]	–	–	–	–	–	–	57% and 99%	–
CC(C)CCC[C@@H](C)[C@H]1CC[C@H]2[C@@H]3CC[C@H]4C[C@H](O)[C@H](Cc5ccc(F)cc5)C[C@]4(C)[C@H]3CC[C@]12C [Example 79, (2a, 3a, 5a)-2-[(4-fluorophenyl)methyl]cholestan-3-ol]	29	40.3	5.4	–	–	–	–	–
C/C=C/C[C@@H]1[C@H](N)CC[C@@]2(C)[C@H]1CC[C@@H]1[C@@H]2CC[C@]2(C)[C@@H]([C@H](C)CCCC(C)C)CC[C@@H]12 [Example 8, [4a(E), 5a]-4-(2-butenyl)-3a-aminocholestone]	51	5.6	2.50	–	–	–	–	–
C=CC[C@H]1C2CC[C@@H]3[C@H](CC[C@]4(C)C(OCCCc5ccccc5)CC[C@@H]34)[C@@]2(C)CC[C@H]1O (stereo partly drawn) [Example 67, (3α,4α)-17-(3-phenylpropoxy)-4-(2-propenyl)androstan-3-ol]	–	11.1 and 22.2	–	–	–	–	111% and 76%	116% and 118% and 74%
CC(C)CCC[C@@H](C)[C@H]1CC[C@H]2[C@@H]3CC[C@H]4[C@H](CC=C(F)F)[C@H](O)CC[C@]4(C)[C@H]3CC[C@]12C [Example 85, (3a, 4a, 5a, 20β)-4-(3,3-difluoro-2-propenyl) cholestan-3-ol]	138	2.7	0.36	–	–	–	–	–
COC(=O)c1ccc(C[C@H]2C3CC[C@H]4[C@@H]5CC[C@H]([C@H](C)CCCC(C)C)[C@@]5(C)CC[C@@H]4[C@@]3(C)CC[C@H]2O)cc1 (some centres unmarked) [Example 29, 4a-(4-methoxycarbonylbenzyl)cholestan-3a-ol]	–	–	–	37	14	2.5	–	–
CC(C)CCC[C@@H](C)[C@H]1CC[C@H]2[C@@H]3CCC4[C@H](Cc5ccc(C(F)(F)F)cc5)[C@H](O)CC[C@]4(C)[C@H]3CC[C@]12C (some centres unmarked) [Example 26, 4a-(4-trifluoromethylbenzyl)cholestan-3a-ol]	–	–	–	–	9.1	–	–	59% and 34%
C=CC[C@H]1C2CC[C@@H]3[C@H](CC[C@]4(C)C(OCCCC(C)(C)C)CC[C@@H]34)[C@@]2(C)CC[C@H]1O (stereo partly drawn) [Example 69, (3α,4α)-17-[(4,4-dimethylpentyl)oxy]-4-(2-propenyl)-androstan-3-ol]	39	–	16.4 and 8.2	48	46.5	20.5	47%	–
C/C=C/C[C@@H]1[C@@H](NC(C)=O)CC[C@@]2(C)[C@H]1CC[C@@H]1[C@@H]2CC[C@]2(C)[C@@H]([C@H](C)CCCC(C)C)CC[C@@H]12 [Example 10, [4a(E),5a]-4-(2-butenyl)-3b acetamidocholestane]	55	10.3	4.5	–	–	–	–	–
CC(C)CCC[C@@H](C)[C@H]1CC[C@H]2[C@@H]3CCC4[C@H](Cc5ccc(Cl)cc5)[C@H](O)CC[C@]4(C)[C@H]3CC[C@]12C (some centres unmarked) [Example 31, 4a-(4-chlorobenzyl)cholestan-3a-ol]	–	–	–	46	9.7	4.3	–	–
C=CC[C@H]1C2=CC[C@H]3[C@@H]4CC[C@H]([C@H](C)CCCC(C)C)[C@@]4(C)CC[C@@H]3[C@@]2(C)CC[C@H]1O [Example 40, 4a-(2-propenyl)-5-cholesten-3a-ol]	–	–	0.51 and 0.52	99	2.3	1.0	110% and 71%	–
C=CC[C@@H]1C(=O)/C(=C/O)C[C@]2(C)[C@H]3CC[C@]4(C)[C@@H]([C@H](C)CCCC(C)C)CC[C@H]4[C@@H]3CC[C@@H]12 [Example 73, 4a-2-(hydroxymethylene)-4-(2-propenyl)cholestan-3-one]	–	–	–	27	11.0	0.97	–	–
CC(C)CCC[C@@H](C)[C@H]1CC[C@H]2[C@@H]3CCC4[C@H](Cc5ccc(CO)cc5)[C@H](O)CC[C@]4(C)[C@H]3CC[C@]12C (some centres unmarked) [Example 33, 4a-(4-hydroxymethylbenzyl)cholestan-3a-ol]	–	–	–	28	9.8	4.3	–	–
CC(C)CCC[C@@H](C)[C@H]1CC[C@H]2[C@@H]3CCC4[C@H](Cc5ccc(C(=O)O)cc5)[C@H](O)CC[C@]4(C)[C@H]3CC[C@]12C (some centres unmarked) [Example 34, 4a-(4-carboxybenzyl)cholestan-3a-ol]	–	–	–	38	4.8	2.1	–	–
